Where a SMILES comes first, the peptide text is derived from it. Bridges are numbered along the chain shown (N, C = ends). [ ]: non-standard residue; d: D form. hPhe(3-Cl-4-CF3) = N[C@@H](CCc1ccc(C(F)(F)F)c(Cl)c1)C(=O)O; NPrPhe(4-CF3) = CCCN[C@@H](Cc1ccc(C(F)(F)F)cc1)C(=O)O; NMeNva(3-Et) = CCC(CC)[C@H](NC)C(=O)O; NMeD = CN[C@@H](CC(=O)O)C(=O)O; NMeL = CN[C@@H](CC(C)C)C(=O)O; NMeA = CN[C@@H](C)C(=O)O; Aze = O=C(O)[C@@H]1CCN1; Ac4c = NC1(C(=O)O)CCC1; Sar = CNCC(=O)O
Experiments:
[1] = molecular target: GDP-bound KRAS wild-type protein (Homo sapiens, UniProt P01116); assay: Binding to KRAS by surface plasmon resonance (SPR), Single Cycle Kinetics; details: SPR, Single Cycle Kinetics, GDP-bound KRAS wild-type protein; read-out: KRAS KD
[2] = molecular target: GDP-bound NRAS wild-type protein (Homo sapiens, UniProt P01111); assay: Binding to NRAS by surface plasmon resonance (SPR), Single Cycle Kinetics; details: ratio of KD for GDP-bound NRAS wild-type protein to KD for KRAS, SPR
[3] = molecular target: GDP-bound HRAS wild-type protein (Homo sapiens, UniProt P01112); assay: Binding to HRAS by surface plasmon resonance (SPR), Single Cycle Kinetics; details: ratio of KD for GDP-bound HRAS wild-type protein to KD for KRAS, SPR
[4] = test system: human lung cancer strain NCI-H441; assay: cells; details: NCI-H441, 96 h, read-out: NCI-H441 IC50 (nM), NCI-H441 cell proliferation, 4 days, CellTiter-Glo;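 further: cell proliferation inhibition after four days measured by CellTiter-Glo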

Sequence of GDP-bound HRAS wild-type protein (P01112 whole entry): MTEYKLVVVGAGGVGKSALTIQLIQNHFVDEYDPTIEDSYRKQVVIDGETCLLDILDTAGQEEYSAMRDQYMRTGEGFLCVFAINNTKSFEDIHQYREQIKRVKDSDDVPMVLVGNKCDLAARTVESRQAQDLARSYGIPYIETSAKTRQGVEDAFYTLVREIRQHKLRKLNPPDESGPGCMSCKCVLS
Sequence of GDP-bound KRAS wild-type protein (P01116 whole entry): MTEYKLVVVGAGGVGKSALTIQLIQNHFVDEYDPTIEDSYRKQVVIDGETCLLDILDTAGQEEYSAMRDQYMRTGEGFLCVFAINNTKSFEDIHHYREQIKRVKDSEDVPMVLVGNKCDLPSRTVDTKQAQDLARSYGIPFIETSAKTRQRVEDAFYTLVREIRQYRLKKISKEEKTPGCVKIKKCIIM
Sequence of GDP-bound NRAS wild-type protein (P01111 whole entry): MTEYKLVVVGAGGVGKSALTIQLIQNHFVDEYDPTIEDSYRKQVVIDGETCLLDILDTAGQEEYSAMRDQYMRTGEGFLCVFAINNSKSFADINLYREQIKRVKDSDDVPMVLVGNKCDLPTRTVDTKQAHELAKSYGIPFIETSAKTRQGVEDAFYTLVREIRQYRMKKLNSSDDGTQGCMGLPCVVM

SMILES	Kd [1] [nM]	NRAS/KRAS (KD ratio) [2]	HRAS/KRAS (KD ratio) [3]	IC50 [4] [nM]
CCCN1C(=O)[C@@H]2CCN2C(=O)[C@H](C)N(C)C(=O)[C@H]([C@@H](C)CC)NC(=O)[C@H](CC(C)C)N(C)C(=O)C[C@@H](C(=O)N(C)C)N(C)C(=O)[C@H](C(CC)CC)N(C)C(=O)C2(CCC2)NC(=O)[C@@H]2CCCN2C(=O)[C@H](CCc2ccc(C(F)(F)F)c(Cl)c2)NC(=O)CN(C)C(=O)[C@@H]1Cc1ccc(C(F)(F)F)cc1 [PP1961] ([NMeL]I[NMeA][Aze][NPrPhe(4-CF3)][Sar][hPhe(3-Cl-4-CF3)]P[Ac4c][NMeNva(3-Et)][NMeD]-NMe2; lactam N-11)	0.22	C (A compound having a KD ratio of 0.1 or more and less than 3 is denoted as C)	C (A compound having a KD ratio of 0.1 or more and less than 3 is denoted as C)	8
CCCN(C)C(=O)[C@@H]1CC(=O)N(C)[C@@H](COC)C(=O)N[C@@H]([C@@H](C)CC)C(=O)N(C)CC(=O)N(C)[C@H]2C/C=C\CCN(C2=O)[C@@H](Cc2ccc(C(F)(F)F)cc2)C(=O)N(C)CC(=O)N[C@@H](CCc2cc(F)c(C(F)(F)F)c(F)c2)C(=O)N2C[C@H](OCC)C[C@H]2C(=O)NC2(CC(C)(C)C2)C(=O)N(C)[C@@H](C2CCCC2)C(=O)N1C [PP1672]	0.087	A (a compound having 10 or more and less than 20 is denoted as A)	A (a compound having 10 or more and less than 20 is denoted as A)	6
CCCN(C)C(=O)[C@@H]1CC(=O)N(C)[C@@H](CC(F)F)C(=O)N[C@@H]([C@@H](C)CC)C(=O)N(C)CC(=O)N(C)[C@H]2C/C=C\CCN(C2=O)[C@@H](Cc2ccc(C(F)(F)F)cc2)C(=O)N(C)CC(=O)N[C@@H](CCc2cc(F)c(C(F)(F)F)c(F)c2)C(=O)N2CCC[C@H]2C(=O)NC2(CC(C)(C)C2)C(=O)N(C)[C@@H](C2CCCC2)C(=O)N1C [PP1721]	0.3	A (a compound having 10 or more and less than 20 is denoted as A)	A (a compound having 10 or more and less than 20 is denoted as A)	10
CCCN(C)C(=O)[C@@H]1CC(=O)N(C)[C@@H](CC(C)C)C(=O)N[C@@H]([C@@H](C)OC)C(=O)N(C)CC(=O)N(C)[C@H]2C/C=C\CCN(C2=O)[C@@H](Cc2ccc(C(F)(F)F)cc2)C(=O)N(C)CC(=O)N[C@@H](CCc2cc(F)c(C(F)(F)F)c(F)c2)C(=O)N2C[C@H](OCC)C[C@H]2C(=O)NC2(CC(C)(C)C2)C(=O)N(C)[C@@H](C2CCCC2)C(=O)N1C [PP1917]	0.29	A (a compound having 10 or more and less than 20 is denoted as A)	A (a compound having 10 or more and less than 20 is denoted as A)	22.5
CCO[C@@H]1C[C@H]2C(=O)NC3(CC(C)(C)C3)C(=O)N(C)[C@@H](C3CCCC3)C(=O)N(CC)[C@H](C(=O)N(C)C)CC(=O)N(C)[C@@H](CC(C)C)C(=O)N[C@@H]([C@@H](C)CC)C(=O)NCC(=O)N(C)[C@H]3C/C=C\CCN(C3=O)[C@@H](Cc3ccc(C(F)(F)F)cc3)C(=O)N(C)CC(=O)N[C@@H](CCc3cc(F)c(C(F)(F)F)c(F)c3)C(=O)N2C1 [PP1773]	0.53	A (a compound having 10 or more and less than 20 is denoted as A)	A (a compound having 10 or more and less than 20 is denoted as A)	39.9
C#CC[C@H]1C(=O)N[C@@H]([C@@H](C)CC)C(=O)N(C)CC(=O)N(C)[C@H]2C/C=C\CCN(C2=O)[C@@H](Cc2ccc(C(F)(F)F)cc2)C(=O)N(C)CC(=O)N[C@@H](CCc2cc(F)c(C(F)(F)F)c(F)c2)C(=O)N2C[C@H](OCC)C[C@H]2C(=O)NC2(CC(F)(F)C2)C(=O)N(C)[C@@H](C2CCCC2)C(=O)N(C)[C@H](C(=O)N(C)CCC)CC(=O)N1C [PP1737]	0.11	A (a compound having 10 or more and less than 20 is denoted as A)	A (a compound having 10 or more and less than 20 is denoted as A)	2.7
CCO[C@@H]1C[C@H]2C(=O)NC3(CC(C)(C)C3)C(=O)N(C)[C@@H](C3CCCC3)C(=O)N3CCC[C@@H]3CC(=O)N(C)[C@@H](CC3CC3)C(=O)N[C@@H]([C@@H](C)CC)C(=O)N(C)CC(=O)N(C)[C@H]3C/C=C\CCN(C3=O)[C@@H](Cc3ccc(C(F)(F)F)cc3)C(=O)N(C)CC(=O)N[C@@H](CCc3cc(F)c(C(F)(F)F)c(F)c3)C(=O)N2C1 [PP1611]	1.3	B (a compound having 3 or more and less than 10 is denoted as B)	B (a compound having 3 or more and less than 10 is denoted as B)	28
CCO[C@@H]1C[C@H]2C(=O)NC3(CC(C)(C)C3)C(=O)N(C)[C@@H](C3CCCC3)C(=O)N(C)[C@H](C(=O)N3CCCCC3)CC(=O)N(C)[C@@H](CC)C(=O)N[C@@H]([C@@H](C)CC)C(=O)N(C)CC(=O)N(C)[C@H]3C/C=C\CCN(C3=O)[C@@H](Cc3ccc(C(F)(F)F)cc3)C(=O)N(C)CC(=O)N[C@@H](CCc3cc(F)c(C(F)(F)F)c(F)c3)C(=O)N2C1 [PP1945]	0.31	AA (a compound having 20 or more is denoted as AA)	A (a compound having 10 or more and less than 20 is denoted as A)	33.8
CCO[C@@H]1C[C@H]2C(=O)NC3(CCC3)C(=O)N(C)[C@@H](C(CC)CC)C(=O)N(C)[C@H](CC)CC(=O)N(C)[C@@H](CC3CC3)C(=O)N[C@@H]([C@@H](C)CC)C(=O)N(C)CC(=O)N(C)[C@H]3C/C=C\CCN(C3=O)[C@@H](Cc3ccc(C(F)(F)F)cc3)C(=O)N(C)CC(=O)N[C@@H](CCc3cc(F)c(C(F)(F)F)c(F)c3)C(=O)N2C1 [PP1630]	1.8	A (a compound having 10 or more and less than 20 is denoted as A)	A (a compound having 10 or more and less than 20 is denoted as A)	144
CCO[C@@H]1C[C@H]2C(=O)NC3(CC(C)(C)C3)C(=O)N(C)[C@@H](C3CCCC3)C(=O)N(C)[C@H](C(=O)N(C)C)CC(=O)N(C)[C@@H](C(C)C)C(=O)N[C@@H]([C@@H](C)CC)C(=O)N(C)CC(=O)N(C)[C@H]3C/C=C\CCN(C3=O)[C@@H](Cc3ccc(C(F)(F)F)cc3)C(=O)N(C)CC(=O)N[C@@H](CCc3ccc(C(F)(F)F)c(OC)c3)C(=O)N2C1 [PP1979]	0.087	AA (a compound having 20 or more is denoted as AA)	A (a compound having 10 or more and less than 20 is denoted as A)	12.5
CC[C@H](C)[C@@H]1NC(=O)[C@H](CC(C)C)N(C)C(=O)C[C@@H](C(=O)N(C)C)N(C)C(=O)[C@H](C2CCCC2)N(C)C(=O)C2(CCC2)NC(=O)[C@@H]2C[C@H](C)CN2C(=O)[C@H](CCc2cc(F)c(C(F)(F)F)c(F)c2)NC(=O)CN(C)C(=O)[C@H](Cc2ccc(C)cc2)N2CC/C=C\C[C@@H](C2=O)N(C)C(=O)CN(C)C1=O [PP1864]	0.064	A (a compound having 10 or more and less than 20 is denoted as A)	B (a compound having 3 or more and less than 10 is denoted as B)	10.2
CCO[C@@H]1C[C@H]2C(=O)N(C)C3(CCC3)C(=O)N(C)[C@@H](C3CCCC3)C(=O)N(C)[C@H](C(=O)N(C)C)CC(=O)N(C)[C@@H](CC)C(=O)N[C@@H]([C@@H](C)CC)C(=O)N(C)CC(=O)N(C)[C@H]3C/C=C\CCN(C3=O)[C@@H](Cc3ccc(C)cc3)C(=O)N(C)CC(=O)N[C@@H](CCc3cc(F)c(C(F)(F)F)c(F)c3)C(=O)N2C1 [PP1781]	0.024	A (a compound having 10 or more and less than 20 is denoted as A)	B (a compound having 3 or more and less than 10 is denoted as B)	2.1
CC[C@H](C)[C@@H]1NC(=O)[C@H](CC(C)C)N(C)C(=O)C[C@@H](C(=O)N(C)CC)N(C)C(=O)[C@H](C2CCCC2)N(C)C(=O)C2(CC(C)(C)C2)NC(=O)[C@@H]2C[C@H](C)CN2C(=O)[C@H](CCc2ccc(C(F)(F)F)c(OC)c2)NC(=O)CN(C)C(=O)[C@H](Cc2ccc(C)cc2)N2CC/C=C\C[C@@H](C2=O)N(C)C(=O)CN(C)C1=O [PP1906]	0.15	A (a compound having 10 or more and less than 20 is denoted as A)	A (a compound having 10 or more and less than 20 is denoted as A)	10.8
CCCN(C)C(=O)[C@@H]1CC(=O)N(C)[C@@H](CC(F)(F)F)C(=O)N[C@@H]([C@@H](C)CC)C(=O)N(C)CC(=O)N(C)[C@H]2C/C=C\CCN(C2=O)[C@@H](Cc2ccc(C(F)(F)F)cc2)C(=O)N(C)CC(=O)N[C@@H](CCc2cc(F)c(C(F)(F)F)c(F)c2)C(=O)N2C[C@H](OCC)C[C@H]2C(=O)NC2(CC(F)(F)C2)C(=O)N(C)[C@@H](C2CCCC2)C(=O)N1C [PP1734]	0.17	A (a compound having 10 or more and less than 20 is denoted as A)	A (a compound having 10 or more and less than 20 is denoted as A)	4.4
